Assay results reported in patent US12612386B2, “Heteroaryl-triazole compounds as pesticides” (Bayer Aktiengesellschaft, priority 2020, dated 2026).

Tests used:
Assay type in all cases: in vivo
[1] = system: engorged adult female cattle ticks (Rhipicephalus microplus) strain Parkhurst, SP-resistant; test: Rhipicephalus (Boophilus) microplus dip test; settings: 100 ppm, egg deposition after 7 days
Experimental: Rhipicephalus (Boophilus) Microplus—Dip Test
Test animal: cattle ticks (Rhipicephalus microplus) strain Parkhurst, SP-resistant
Solvent: dimethyl sulfoxide
To produce a suitable preparation of active compound, 10 mg of active compound are dissolved in 0.5 mL solvent, and the concentrate is diluted with water to the desired concentration.
This compound solution is pipetted into tubes. 8-10 engorged, adult, female cattle ticks (Rhipicephalus microplus) are placed in perforated tubes. These tubes are immersed in the aqueous compound solution until the ticks are completely moistened. After the liquid has drained off, the ticks are transferred to a filter paper in a plastic tray and stored in a climate chamber.
After 7 days egg deposition of fertile eggs is monitored. Eggs where fertility is not visible are stored in a climate chamber till hatching after about 42 days. An efficacy of 100% means all eggs are infertile; 0% means all eggs are fertile.

[2] = system: green peach aphid (Myzus persicae); test: whole plant or invertebrate; settings: 120 h
Experimental: Solvent: 100 parts by weight acetone
To produce a suitable preparation of active compound, 1 part by weight of active compound is mixed with the stated amount of solvent, and the concentrate is diluted with water to the desired concentration.
50 μL compound solution is filled in microtiter plates and 150 μL IPL41 insect medium (33%+15% sugar) is added to obtain a total volume of 200 μL per well. Afterwards the plates are sealed with parafilm through which a mixed population of the green peach aphid (Myzus persicae) can suck on the compound preparation.
After 5 days mortality in % is determined. 100% means all aphids have been killed and 0% means none of the aphids have been killed.
Myzus persicae—Oral Test (MYZUPE Oral)

[3] = system: fall armyworm larvae (Spodoptera frugiperda); test: whole plant or invertebrate; settings: 168 h
In short: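 Maize leaf sections sprayed with compound in acetone/DMF with alkylarylpolyglycol ether emulsifier diluted in water, then infested with fall armyworm larvae once dry. Mortality (%) scored after 7 days; 100% = all caterpillars killed.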

C[C@H](NC(=O)c1cc(Br)cc(OC(F)(F)F)c1)c1ncnn1-c1cc(C#N)ncn1 [I-1, 3-bromo-N-{(1S)-1-[1-(6-cyanopyrimidin-4-yl)-1H-1,2,4-triazol-5-yl]ethyl}-5-(trifluoromethoxy)benzamide]
100%: efficacy (infertile eggs) [1] | mortality at 0.16 ppm ([2]; MYZUPE oral, 0.16 ppm, 5 dat (Table 3), read-out: % Efficacy) | mortality at 4 ppm ([2]; po) | mortality at 100 g/ha [3] | Emax at 20 g/ha ([3]; SPODFR, 20 g ai/ha, 7 dat (Table 3), read-out: % Efficacy)
